Assay results taken from patent US20240393292A1, “ALLERGY ANTIGEN AND EPITOPE THEREOF” (HOYU CO., LTD., priority 2019, published 2024).
Entries after “also recorded” stand apart in the source; their conditions may differ.

What was measured:
[1] = tested on: IgE antibodies from patients having allergies to each food; assay: Confirmation of epitope cross-reactivity by ELISA with biotinylated peptides; assay type: binding, human
Text: Amino acids other than amino acids important for maintaining binding to IgE antibodies, in each of the epitope sequences found in the wheat proteins in Table 2 were defined as any given amino acid (X). NCBI was searched for proteins having the key sequences having the amino acid residues X in cooking ingredient allergens carried in common by each of the patients. As a result, an amino acid sequence contained in a sequence in each food described in the column “Food with which cross-reactivity was confirmed” in Table 2 was identified as one example.
The binding activity of peptides comprising the amino acid sequences described in the column “Synthesis sequence” and the rightmost column “SEQ ID NO” of Table 2 against IgE antibodies from patients having allergies to each food described in the column “Food with which cross-reactivity was confirmed” in Table 2 was confirmed by ELISA. The peptides were synthesized such that the peptides were N-terminally biotinylated by the Fmoc method.
To be specific, ELISA was carried out according to the following procedure. • (1) The concentrations of the biotinylated peptides were adjusted to 10 μg/mL with PBST (0.1% Tween 20). • (2) Each peptide solution was added at 20 μL to each well of a 384-well plate coated with streptavidin, and shaken at room temperature for one hour. After collection of the solution, the wells were washed with PBST five times. • (3) Pierce Protein-Free (PBS) Blocking Buffer (produced by Thermo) was added at 40 μL thereto and shaken at room temperature for one hour. After removal of the solution, the wells were washed with PBST five times. • (4) 2% serum/Canget SignalSolution I (produced by TOYOBO) was added at 20 μL thereto and shaken at room temperature for one hour. After removal of the solution, the wells were washed with PBST five times. • (5) A diluted secondary antibody solution (1:10000, Canget SignalSolution II (produced by TOYOBO)) was added at 20 μL thereto and shaken at room temperature for one hour. After removal of the solution, the wells were washed with PBST five times. • (6) 1-Step Ultra TMB-ELISA (produced by Thermo) was added at 20 μL thereto and shaken at room temperature for 15 minutes. • (7) 2 M H2SO4 was added at 20 μL thereto. Absorbance at 450 nm was measured.
Peptides having these amino acid sequences were prepared by the same procedure as described in Example 4 (A), and the presence or absence of binding thereto of IgE antibodies present in the serum of an allergic patient and the serum of a nonallergic subject was measured. The serum of two nonallergic subjects was measured, and values obtained by dividing the measurement values by an average value thereof were used.
The bar graph of each figure depicts “absorbance of the allergic patient/absorbance of the nonallergic patient (healthy subject)”. The names of the cooking ingredients described in each graph are the names of cooking ingredients containing a polypeptide comprising an amino acid sequence serving as the basis of each synthetic sequence used.

[2] = tested on: IgE antibody present in the serum of a wheat-allergic patient; assay: Wheat epitope mapping (1): peptide array of overlapping 15-amino-acid peptides, chemiluminescence; assay type: binding, human; settings: bound = chemiluminescence value minus N2nd value of 5 non-wheat-allergic subjects at least 35,000; serum of 49 patients
Method: Epitope mapping was carried out using a library of overlapping peptides (length: 15 amino acids) corresponding to the amino acid sequences identified as allergy components of wheat. Specifically, the library of overlapping peptides was prepared on the basis of the amino acid sequences of SEQ ID NOs: 2, 4, 6, 8, 10, 12, 14, 16, 18, 20, 22, 24, 26 and 28.
The peptides to be synthesized were shifted by 10 amino acids.
For preparation of peptide arrays, the Intavis CelluSpots™ technique was used. Specifically, the peptide arrays were prepared by the following procedure: (1) synthesizing peptides of interest on amino-modified cellulose disks using an automated chemical synthesis apparatus (Intavis MultiPep RS), (2) dissolving the amino-modified cellulose disks to obtain a cellulose-bound peptide solution, and (3) spotting the cellulose-bound peptides onto coated glass slides. The details of each procedure are as described below.
Peptide synthesis was carried out in incremental steps through 9-fluorenylmethoxycarbonyl (Fmoc) chemical reaction on amino-modified cellulose disks in 384-well synthesis plates. Specifically, amino acids in which a Fmoc group is bonded to an amino group were activated in a solution of N,N′-diisopropylcarbodiimide (DIC) and 1-hydroxybenzotriazole (HOBt) in dimethylformamide (DMF) and added dropwise to the cellulose disks so that the Fmoc group-bound amino acids were bound to the amino groups on the cellulose disks (coupling). Unreacted amino groups were capped with acetic anhydride and washed with DMF. Furthermore, the Fmoc groups were eliminated from the amino groups of the amino acids bound to the amino groups on the cellulose disks by treatment with piperidine and washing with DMF. The amino acids bound to the amino groups on the cellulose disks were repetitively subjected to the coupling, the capping, and the Fmoc group elimination described above to elongate the amino terminus for peptide synthesis.
The peptides-bound cellulose disks of interest obtained above in the subsection titled “(1) Synthesis of peptide” were transferred to 96-well plates and treated with a side chain deprotection mixed solution of trifluoroacetic acid (TFA), dichloromethane, triisopropylsilane (TIPS), and water for deprotection of amino acid side chains. Then, the deprotected cellulose-bound peptides were dissolved in a mixed solution of TFA, […] acid (TFMSA), TIPS, and water and precipitated in […] methyl ether (TBME), and the precipitate was resuspended in dimethyl sulfoxide (DMSO) and mixed with a mixed solution of NaCl, sodium citrate, and water to obtain a peptide solution for slide spotting.
The peptide solution for slide spotting obtained above in the subsection titled “(2) Dissolution of amino-modified cellulose disk” was spotted onto Intavis CelluSpots™ slides using Intavis Slide Spotting Robot, and the slides were dried to prepare peptide arrays.
The presence or absence of binding, to each peptide fragment, of an IgE antibody present in the serum of a wheat-allergic patient was measured through antigen-antibody reaction using the peptide arrays. […]

[3] = synthetic sequence, Graph No. 3, epitope of patient P8

Row | binding of patient-specific IgE antibodies to 15-residue peptide [2] | Substance | also measured
1 | confirmed to bind | SEQ ID NO: 1257: common 15-residue epitope sequence of polypeptide (E19) (SSLVSMILPRSDCKV; REGION 1..15: note = epitope) | –
2 | confirmed to bind | SEQ ID NO: 1608: common 15-residue epitope sequence of polypeptide (E26) (VGYNPDKVPFVPISG; REGION 1..15: note = epitope) | –
3 | confirmed to bind | SEQ ID NO: 2491: common 15-residue epitope sequence of polypeptide (E42) (SSQVSFQPSQLNPQA; REGION 1..15: note = epitope) | –
4 | confirmed to bind | SEQ ID NO: 640: common 15-residue epitope sequence of polypeptide (E9) (QVPLVQQQQFPGQQQ; REGION 1..15: note = epitope) | –
5 | confirmed to bind | SEQ ID NO: 2545: common 15-residue epitope sequence of polypeptide (E43) (LQQSTYQLVQQLCCQ; REGION 1..15: note = epitope) | –
6 | confirmed to bind | SEQ ID NO: 1566: common 15-residue epitope sequence of polypeptide (E24) (PQQPQQPFPQTQQPQ; REGION 1..15: note = epitope) | –
7 | confirmed to bind | SEQ ID NO: 2154: common 15-residue epitope sequence of polypeptide (E36) (YSQPQQPISQQQQQQ; REGION 1..15: note = epitope) | –
8 | confirmed to bind | SEQ ID NO: 974: common 15-residue epitope sequence of polypeptide (E13) (QPFPQQQQPIIILQQ; REGION 1..15: note = epitope) | –
9 | confirmed to bind | SEQ ID NO: 1166: common 15-residue epitope sequence of polypeptide (E17) (PGQQQQFPPQQPYPQ; REGION 1..15: note = epitope) | –
10 | confirmed to bind | SEQ ID NO: 2701: common 15-residue epitope sequence of polypeptide (E47) (VYKIGGIGTVPVGRV; REGION 1..15: note = epitope) | –
11 | confirmed to bind | SEQ ID NO: 1977: common 15-residue epitope sequence of polypeptide (E32) (DPTGAKVTKAAIKKK; REGION 1..15: note = epitope) | –
12 | confirmed to bind | SEQ ID NO: 493: common 15-residue epitope sequence of polypeptide (E7) (PQQPYPQQQPQYLQP; REGION 1..15: note = epitope) | –

Further lines, the substance ahead of its results:

Row | Substance | binding of patient-specific IgE antibodies to 15-residue peptide [2] | also measured
13 | GLFGTN (GIFGTN) | – | Food in which cross-reactivity was confirmed ([1]; synthetic sequence tested for IgE binding by ELISA, Graph No. 3, epitope row of patient P8): Wheat/barley/rye 3
14 | 2922 (GIDKRV; REGION 1..6: note = epitope) [compound 2922] | – | Food in which cross-reactivity was confirmed [1, 3]: Wheat/barley
15 | 2923 (KRVIERFEK; REGION 1..9: note = epitope) [compound 2923] | – | Food in which cross-reactivity was confirmed [1, 3]: Wheat/barley
16 | 2889 (ILFEETLYQS; REGION 1..10: note = epitope) [compound 2889] | – | Food in which cross-reactivity was confirmed ([1]; epitope E10 (Fructose-bisphosphate aldolase W5CCA9), listed under patient P8, Graph No. 3): Wheat/rye/barley
17 | 29 (QQILWYHQQQPIQQQ; REGION 1..15: note = epitope) [compound 29] | – | Food in which cross-reactivity was confirmed ([1]; serum IgE of patient P7 (WDEIA), epitope E1, LMW-D8(LMW-GS) B2BZD1, Spot No. 9, key sequence XXXXXXXQXXXIQQX (SEQ ID NO 45), Graph No. 1): Wheat; Food in which cross-reactivity was confirmed ([1]; serum IgE of patient P13 (WDEIA), epitope E1, LMW-D8(LMW-GS) B2BZD1, Spot No. 9, key sequence XXXXXYXQXXXIQQX (SEQ ID NO 62), Graph No. 1): Wheat; Food in which cross-reactivity was confirmed ([1]; serum IgE of patient P36 (WDEIA), epitope E1, LMW-D8(LMW-GS) B2BZD1, Spot No. 9, key sequence XXXXXXXQXXXIQQX (SEQ ID NO 122), Graph No. 1): Wheat
18 | 2881 (QEQQQYYPQQQAFFL; REGION 1..15: note = epitope) [compound 2881] | – | Food in which cross-reactivity was confirmed ([1]; serum IgE of patient P4 (WDEIA), epitope E3, LMW-D8(LMW-GS) B2BZD1, Spot No. 9, key sequence XXXQQXXPQQXXXXX (SEQ ID NO 203), Graph No. 1): Orchard grass; Food in which cross-reactivity was confirmed ([1]; serum IgE of patient P10 (WDEIA), epitope E3, LMW-D8(LMW-GS) B2BZD1, Spot No. 9, key sequence XXXQQXXPQQQXXXX (SEQ ID NO 220), Graph No. 1): Orchard grass; Food in which cross-reactivity was confirmed ([1]; serum IgE of patient P32 (WDEIA), epitope E3, LMW-D8(LMW-GS) B2BZD1, Spot No. 9, preferred sequence XXQQQXFPQQQXXXX (SEQ ID NO 268), Graph No. 1): Orchard grass
19 | 2910 (SLAEYTVRTLQRTVP; REGION 1..15: note = epitope) [compound 2910] | – | Food in which cross-reactivity was confirmed ([1]; Graph No. 2, synthetic sequence listed under patient P16): Wheat/rye/barley/; also recorded: timothy
20 | NEPSQLSLDQNAQGL | – | Food in which cross-reactivity was confirmed ([1]; epitope E16 (Fructose-bisphosphate aldolase W5CCA9, Spot No. 4), patient P21, key sequence XXXXQXXXDQNXXXX (SEQ ID NO 1144), Graph No. 2): timothy
21 | SEQ ID NO: 1209: common 15-residue epitope sequence of polypeptide (E18) (PIQQQPQPFPQQPPC; REGION 1..15: note = epitope) | confirmed to bind | –
